Columns and labels:
Caco-2 cell monolayers = experiment: Caco-2 permeation assay; type: in vitro ADME; settings: 5 μM, A-B direction, with Verapamil (25 μM)
Procedure, shortened: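 Compounds tested at 5 μM in duplicate across Caco-2 monolayers, apical-to-basolateral, with 25 μM verapamil to block P-gp, at 37° C., 5% CO2. Apical and basal samples taken at 0 and 120 min, analysed by LC-MS/MS; Papp (cm/sec) calculated as dQ/(dt×Area×concentration).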

[1] = Colon and plasma mouse pharmacokinetics; type: in vivo; settings: mouse, colon tissue / plasma; male Balb/c mice, 10 mg/kg PO; ratio of the colon AUC to the plasma AUC
Experimental: Assay 5: Colon and Plasma Mouse Pharmacokinetics
To 6 male Balb/c mice was administered 10 mg/kg of compound in 1% HPMC+0.1% Tween-80 by PO administration. At 0.5, 2 and 6 hours after dose administration, animals were anesthetized, and terminal blood samples were collected by cardiac puncture, followed by collection of colon contents and colon tissue.
Blood samples were collected into K2EDTA and stored on wet ice until processed to plasma by centrifugation (12000 rpm at 4° C.). Plasma samples were transferred to cluster tubes and placed on dry ice prior to freezer storage. The colon contents from each animal were collected at each terminal blood collection time point. The colon tissues were flushed with saline and patted dry. The colon and colon content tissues were homogenized using sterile water containing 0.1% formic acid 9:1 (water:tissue, v/w). The homogenized tissues and colon contents were transferred to cluster tubes and placed on dry ice prior to freezer storage. All samples were analyzed using LC/MS/MS against analytical standards.
The composite pharmacokinetic parameters of the compounds were determined by non-compartmental analysis using Phoenix WinNonlin Version 6 (Certara, St. Louis, Mo.) and using mean values from 2 animals/time point. For plasma concentrations below the quantification limit (BQL), the lowest concentration measurable or the BLOQ (below limit of quantification) was used.
A colon to plasma ratio was determined as the ratio of the colon AUC to the plasma AUC.

[2] = tested on: IL-2 stimulated STAT5 phosphorylation in Tall-1 human T cell line (JAK3); experiment: Cellular JAK3 potency assay: inhibition of IL-2 stimulated pSTAT5 in Tall-1 T cells; type: cell-based; settings: IL-2 stimulated pSTAT5, Tall-1 T cells
Procedure, shortened: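 Tall-1 cells, 45,000 per well, preincubated 1 hour with compound at 37 °C, then stimulated 30 minutes with IL-2 at 300 ng/ml final. pSTAT5 (Tyr694/699) in lysates quantified by AlphaLISA SureFire Ultra. pIC50 derived from inhibition curves, given as mean with SD.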

JAK3 = JAK3 (Homo sapiens (Human), UniProt P52333); experiment: Biochemical JAK3 kinase assay (LanthaScreen); settings: for JAK3 (pKi)-JAK1 (pKi): selectivity JAK3 over JAK1, difference of pKi
Sequence of JAK3 (P52333 whole entry): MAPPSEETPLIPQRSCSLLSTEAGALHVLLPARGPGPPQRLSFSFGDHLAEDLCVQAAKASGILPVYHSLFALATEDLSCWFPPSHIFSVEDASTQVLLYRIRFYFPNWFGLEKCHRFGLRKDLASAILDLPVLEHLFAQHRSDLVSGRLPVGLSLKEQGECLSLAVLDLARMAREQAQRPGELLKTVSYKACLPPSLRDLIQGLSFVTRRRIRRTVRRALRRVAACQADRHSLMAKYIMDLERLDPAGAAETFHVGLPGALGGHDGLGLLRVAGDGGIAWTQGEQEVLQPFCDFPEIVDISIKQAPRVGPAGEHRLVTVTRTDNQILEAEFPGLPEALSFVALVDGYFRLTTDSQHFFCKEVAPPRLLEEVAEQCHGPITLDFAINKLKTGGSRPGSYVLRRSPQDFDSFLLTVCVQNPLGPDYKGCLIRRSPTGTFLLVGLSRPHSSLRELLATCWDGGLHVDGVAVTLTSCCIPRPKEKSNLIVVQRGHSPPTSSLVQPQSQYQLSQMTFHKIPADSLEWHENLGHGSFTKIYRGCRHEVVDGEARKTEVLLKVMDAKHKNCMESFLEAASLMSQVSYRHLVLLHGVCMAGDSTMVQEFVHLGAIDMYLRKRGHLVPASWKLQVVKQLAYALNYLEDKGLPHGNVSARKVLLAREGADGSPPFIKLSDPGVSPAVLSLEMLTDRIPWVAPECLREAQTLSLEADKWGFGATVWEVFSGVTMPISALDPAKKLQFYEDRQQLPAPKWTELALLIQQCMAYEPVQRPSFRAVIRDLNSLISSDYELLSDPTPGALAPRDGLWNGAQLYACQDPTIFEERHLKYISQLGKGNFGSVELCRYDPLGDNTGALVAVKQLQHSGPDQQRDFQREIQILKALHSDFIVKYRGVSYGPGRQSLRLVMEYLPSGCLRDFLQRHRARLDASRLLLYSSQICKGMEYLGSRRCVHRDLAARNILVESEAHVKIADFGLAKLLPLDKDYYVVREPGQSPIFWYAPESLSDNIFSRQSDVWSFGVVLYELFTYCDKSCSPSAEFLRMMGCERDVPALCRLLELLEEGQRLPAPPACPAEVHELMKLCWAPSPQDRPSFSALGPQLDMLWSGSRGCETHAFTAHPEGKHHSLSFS
Procedure, shortened: (§1)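 GST-JAK + GFP-STAT1 peptide, HEPES pH 7.5/MgCl2/EGTA/Brij-35 buffer; cpd preincubation 1 h RT; ATP start, 1 h RT; stop with 10 mM EDTA + 2 nM Tb-anti-pSTAT1; TR-FRET 520/495. 4-parameter IC50 → pKi (Cheng-Prusoff).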

JAK2 = JAK2 (Homo sapiens (Human), UniProt O60674); experiment: Biochemical JAK2 kinase assay (LanthaScreen)
Sequence of JAK2 (O60674 whole entry): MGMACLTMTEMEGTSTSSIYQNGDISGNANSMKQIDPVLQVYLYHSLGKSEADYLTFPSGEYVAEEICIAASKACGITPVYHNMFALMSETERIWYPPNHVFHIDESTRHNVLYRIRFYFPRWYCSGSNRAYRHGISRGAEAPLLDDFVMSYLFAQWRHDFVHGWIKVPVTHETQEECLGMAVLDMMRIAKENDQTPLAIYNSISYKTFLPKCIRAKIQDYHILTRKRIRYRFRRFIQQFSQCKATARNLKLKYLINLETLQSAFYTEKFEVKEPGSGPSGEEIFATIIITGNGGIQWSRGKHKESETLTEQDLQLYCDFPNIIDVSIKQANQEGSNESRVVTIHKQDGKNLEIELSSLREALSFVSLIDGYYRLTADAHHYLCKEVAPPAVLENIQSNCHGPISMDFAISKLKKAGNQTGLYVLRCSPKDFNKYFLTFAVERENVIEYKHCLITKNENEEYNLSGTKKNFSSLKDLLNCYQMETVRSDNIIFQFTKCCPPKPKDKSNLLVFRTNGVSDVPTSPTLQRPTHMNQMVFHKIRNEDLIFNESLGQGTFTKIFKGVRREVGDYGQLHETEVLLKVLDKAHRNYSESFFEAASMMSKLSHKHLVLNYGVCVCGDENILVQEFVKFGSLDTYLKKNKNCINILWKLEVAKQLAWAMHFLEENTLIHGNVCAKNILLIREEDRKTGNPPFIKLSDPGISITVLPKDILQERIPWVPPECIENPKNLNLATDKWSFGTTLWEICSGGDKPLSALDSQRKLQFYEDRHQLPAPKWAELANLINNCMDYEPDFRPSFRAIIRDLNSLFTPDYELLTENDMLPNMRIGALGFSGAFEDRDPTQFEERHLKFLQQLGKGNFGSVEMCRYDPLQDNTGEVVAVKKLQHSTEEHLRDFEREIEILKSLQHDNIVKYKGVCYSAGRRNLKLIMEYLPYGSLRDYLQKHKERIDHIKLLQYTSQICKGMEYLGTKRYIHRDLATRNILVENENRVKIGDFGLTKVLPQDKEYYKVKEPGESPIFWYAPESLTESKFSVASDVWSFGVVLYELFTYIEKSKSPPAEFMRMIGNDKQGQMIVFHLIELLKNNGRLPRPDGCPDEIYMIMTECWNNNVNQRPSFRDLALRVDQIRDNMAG
Procedure, shortened: as §1

JAK1 = JAK1 (Homo sapiens (Human), UniProt P23458); experiment: Biochemical JAK1 kinase assay (LanthaScreen)
Sequence of JAK1 (P23458 whole entry): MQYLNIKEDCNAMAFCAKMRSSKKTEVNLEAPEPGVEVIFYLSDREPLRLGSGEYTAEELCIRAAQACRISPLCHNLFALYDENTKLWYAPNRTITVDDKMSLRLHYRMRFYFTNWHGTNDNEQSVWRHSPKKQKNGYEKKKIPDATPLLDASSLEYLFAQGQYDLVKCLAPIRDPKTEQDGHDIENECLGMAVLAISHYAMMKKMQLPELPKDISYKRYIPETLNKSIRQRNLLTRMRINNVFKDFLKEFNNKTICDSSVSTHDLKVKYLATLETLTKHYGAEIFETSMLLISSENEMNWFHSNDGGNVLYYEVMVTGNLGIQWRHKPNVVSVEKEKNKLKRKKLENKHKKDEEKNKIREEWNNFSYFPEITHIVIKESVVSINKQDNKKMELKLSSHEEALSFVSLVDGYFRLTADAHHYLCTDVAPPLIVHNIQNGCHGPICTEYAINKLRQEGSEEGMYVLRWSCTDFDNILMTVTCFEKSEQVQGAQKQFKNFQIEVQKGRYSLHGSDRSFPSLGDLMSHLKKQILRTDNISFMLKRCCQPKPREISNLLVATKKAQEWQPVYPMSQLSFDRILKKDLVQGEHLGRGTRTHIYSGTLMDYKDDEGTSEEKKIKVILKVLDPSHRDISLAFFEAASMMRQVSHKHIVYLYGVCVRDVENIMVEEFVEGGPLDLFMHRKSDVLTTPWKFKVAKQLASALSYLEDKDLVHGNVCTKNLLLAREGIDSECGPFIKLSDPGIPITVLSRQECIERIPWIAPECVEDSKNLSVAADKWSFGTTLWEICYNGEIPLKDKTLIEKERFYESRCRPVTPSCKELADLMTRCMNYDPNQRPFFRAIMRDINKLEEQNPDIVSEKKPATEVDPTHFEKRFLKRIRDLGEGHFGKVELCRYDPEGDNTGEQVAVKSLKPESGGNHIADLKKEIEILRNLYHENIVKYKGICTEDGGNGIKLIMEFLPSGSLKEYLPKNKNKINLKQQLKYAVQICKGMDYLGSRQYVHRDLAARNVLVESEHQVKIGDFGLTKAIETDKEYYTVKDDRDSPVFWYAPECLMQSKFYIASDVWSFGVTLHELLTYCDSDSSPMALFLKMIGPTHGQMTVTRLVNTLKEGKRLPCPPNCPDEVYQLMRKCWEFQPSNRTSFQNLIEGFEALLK
Procedure, shortened: as §1

Tyk2 = Tyk2 (Homo sapiens (Human), UniProt P29597); experiment: Biochemical Tyk2 kinase assay (LanthaScreen)
Sequence of Tyk2 (P29597 whole entry): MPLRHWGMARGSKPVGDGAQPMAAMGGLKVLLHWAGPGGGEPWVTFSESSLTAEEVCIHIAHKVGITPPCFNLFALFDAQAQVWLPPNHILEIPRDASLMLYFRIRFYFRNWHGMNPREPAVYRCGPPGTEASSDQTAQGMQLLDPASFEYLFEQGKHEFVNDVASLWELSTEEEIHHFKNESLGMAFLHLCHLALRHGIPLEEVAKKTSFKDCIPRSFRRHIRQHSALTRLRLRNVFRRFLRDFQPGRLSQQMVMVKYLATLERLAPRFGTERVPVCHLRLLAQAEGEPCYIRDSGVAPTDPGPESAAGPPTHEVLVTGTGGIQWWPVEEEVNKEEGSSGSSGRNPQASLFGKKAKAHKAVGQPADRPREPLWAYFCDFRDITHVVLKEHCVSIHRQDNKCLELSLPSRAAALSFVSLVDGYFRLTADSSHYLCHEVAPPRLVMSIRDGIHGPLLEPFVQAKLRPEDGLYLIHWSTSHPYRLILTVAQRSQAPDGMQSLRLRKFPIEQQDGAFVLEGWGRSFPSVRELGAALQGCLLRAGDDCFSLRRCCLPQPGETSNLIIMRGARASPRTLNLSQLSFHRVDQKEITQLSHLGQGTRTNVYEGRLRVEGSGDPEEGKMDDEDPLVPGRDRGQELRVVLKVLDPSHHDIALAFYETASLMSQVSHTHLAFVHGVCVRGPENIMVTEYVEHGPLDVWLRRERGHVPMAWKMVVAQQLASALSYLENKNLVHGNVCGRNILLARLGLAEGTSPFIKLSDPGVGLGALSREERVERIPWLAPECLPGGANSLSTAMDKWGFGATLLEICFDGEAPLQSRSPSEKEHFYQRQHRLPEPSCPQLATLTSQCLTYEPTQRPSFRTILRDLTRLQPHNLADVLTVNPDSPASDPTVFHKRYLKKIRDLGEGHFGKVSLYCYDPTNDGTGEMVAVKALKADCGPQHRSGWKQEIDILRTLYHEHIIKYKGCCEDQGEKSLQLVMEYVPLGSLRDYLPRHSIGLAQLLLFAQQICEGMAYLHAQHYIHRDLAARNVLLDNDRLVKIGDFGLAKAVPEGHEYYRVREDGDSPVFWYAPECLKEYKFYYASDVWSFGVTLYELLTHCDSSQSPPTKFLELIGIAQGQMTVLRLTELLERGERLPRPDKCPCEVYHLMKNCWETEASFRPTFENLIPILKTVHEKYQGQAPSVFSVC
Procedure, shortened: as §1

SMILES | Caco Kp (Caco-2 cell monolayers) | Kp [1] | Tall-1 (pIC50) [2] | JAK 3 (pKi) (JAK3) | JAK3 (pKi)-JAK1 (pKi) (JAK3) | JAK 2 (pKi) (JAK2) | JAK 1 (pKi) (JAK1) | Tyk 2 (pKi) (Tyk2)
C=CC(=O)N1CCN(CCn2c(=O)ccc3cnc(Nc4ccc(N5CCSCC5)cc4)nc32)CC1 [Example 38] | C (C represents a value between 10×10^−6 and 30×10^−6 cm/sec) | > 1000 | B (B represents a pC50 value between 6.7 (included) and 7.5 (IC50 between 200 nM and 32 nM)) | B (B represents pKi value between 9 and 10 (Ki between 1 nM and 0.1 nM)) | A (A represents a value of 3 or above) | E (E represents a pKi value of 7 or below (Ki of 100 nM or above)) | E (E represents a pKi value of 7 or below (Ki of 100 nM or above)) | E (E represents a pKi value of 7 or below (Ki of 100 nM or above))
C=CC(=O)N1CC(CCn2c(=O)ccc3cnc(Nc4cccc(CN5CCN(C)CC5)c4)nc32)C1 [Example 52] | A (A represents a value below 5×10^−6 cm/sec) | > 100 | B (B represents a pC50 value between 6.7 (included) and 7.5 (IC50 between 200 nM and 32 nM)) | B (B represents pKi value between 9 and 10 (Ki between 1 nM and 0.1 nM)) | A (A represents a value of 3 or above) | E (E represents a pKi value of 7 or below (Ki of 100 nM or above)) | E (E represents a pKi value of 7 or below (Ki of 100 nM or above)) | E (E represents a pKi value of 7 or below (Ki of 100 nM or above))
C=CC(=O)N1CC(CCn2c(=O)ccc3cnc(Nc4ccc(C5=CCN(C)CC5)cc4)nc32)C1 [Example 74] | A (A represents a value below 5×10^−6 cm/sec) | > 100 | B (B represents a pC50 value between 6.7 (included) and 7.5 (IC50 between 200 nM and 32 nM)) | B (B represents pKi value between 9 and 10 (Ki between 1 nM and 0.1 nM)) | A (A represents a value of 3 or above) | E (E represents a pKi value of 7 or below (Ki of 100 nM or above)) | E (E represents a pKi value of 7 or below (Ki of 100 nM or above)) | E (E represents a pKi value of 7 or below (Ki of 100 nM or above))
C=CC(=O)N1CC(CCn2c(=O)ccc3cnc(Nc4ccc(N5CCN(S(=O)(=O)CCOC)CC5)cc4)nc32)C1 [Example 76] | B (B represents a value between 5×10^−6 and 10×10^−6 cm/sec) | > 14 | B (B represents a pC50 value between 6.7 (included) and 7.5 (IC50 between 200 nM and 32 nM)) | B (B represents pKi value between 9 and 10 (Ki between 1 nM and 0.1 nM)) | A (A represents a value of 3 or above) | E (E represents a pKi value of 7 or below (Ki of 100 nM or above)) | E (E represents a pKi value of 7 or below (Ki of 100 nM or above)) | E (E represents a pKi value of 7 or below (Ki of 100 nM or above))
C=CC(=O)N1CCN(CCn2c(=O)ccc3cnc(Nc4ccc(N5CCN(C(C)=O)CC5)cc4)nc32)CC1 [Example 79] | A (A represents a value below 5×10^−6 cm/sec) | > 1000 | B (B represents a pC50 value between 6.7 (included) and 7.5 (IC50 between 200 nM and 32 nM)) | B (B represents pKi value between 9 and 10 (Ki between 1 nM and 0.1 nM)) | A (A represents a value of 3 or above) | E (E represents a pKi value of 7 or below (Ki of 100 nM or above)) | E (E represents a pKi value of 7 or below (Ki of 100 nM or above)) | E (E represents a pKi value of 7 or below (Ki of 100 nM or above))
C=CC(=O)N1CC(CCn2c(=O)ccc3cnc(Nc4ccc(N(CC)CC)cc4)nc32)C1 [Example 88] | D (D represents a value over 30×10^−6 cm/sec) | > 14 | B (B represents a pC50 value between 6.7 (included) and 7.5 (IC50 between 200 nM and 32 nM)) | A (A represents a pKi value≥10 (Ki≤0.1 nM)) | A (A represents a value of 3 or above) | E (E represents a pKi value of 7 or below (Ki of 100 nM or above)) | E (E represents a pKi value of 7 or below (Ki of 100 nM or above)) | E (E represents a pKi value of 7 or below (Ki of 100 nM or above))
C=CC(=O)N1CC(CCn2c(=O)ccc3cnc(Nc4ccc(CCN(C)C)cc4)nc32)C1 [Example 89] | A (A represents a value below 5×10^−6 cm/sec) | > 100 | A (A represents a pIC50 value≥7.5 (IC50≤32 nM)) | B (B represents pKi value between 9 and 10 (Ki between 1 nM and 0.1 nM)) | A (A represents a value of 3 or above) | E (E represents a pKi value of 7 or below (Ki of 100 nM or above)) | E (E represents a pKi value of 7 or below (Ki of 100 nM or above)) | E (E represents a pKi value of 7 or below (Ki of 100 nM or above))
C=CC(=O)N1CC(CCn2c(=O)ccc3cnc(Nc4ccc(N5CCN(C(=O)N(C)C)CC5)cc4)nc32)C1 [Example 92] | A (A represents a value below 5×10^−6 cm/sec) | > 100 | B (B represents a pC50 value between 6.7 (included) and 7.5 (IC50 between 200 nM and 32 nM)) | B (B represents pKi value between 9 and 10 (Ki between 1 nM and 0.1 nM)) | A (A represents a value of 3 or above) | E (E represents a pKi value of 7 or below (Ki of 100 nM or above)) | E (E represents a pKi value of 7 or below (Ki of 100 nM or above)) | E (E represents a pKi value of 7 or below (Ki of 100 nM or above))
C=CC(=O)N1CC(CCn2c(=O)ccc3cnc(Nc4ccc(N5CCN(S(=O)(=O)C6COC6)CC5)cc4)nc32)C1 [Example 102] | A (A represents a value below 5×10^−6 cm/sec) | > 1000 | B (B represents a pC50 value between 6.7 (included) and 7.5 (IC50 between 200 nM and 32 nM)) | A (A represents a pKi value≥10 (Ki≤0.1 nM)) | A (A represents a value of 3 or above) | E (E represents a pKi value of 7 or below (Ki of 100 nM or above)) | E (E represents a pKi value of 7 or below (Ki of 100 nM or above)) | E (E represents a pKi value of 7 or below (Ki of 100 nM or above))
C=CC(=O)N1CC(CCn2c(=O)ccc3cnc(Nc4cccc(N5CCN(C(=O)CSC)CC5)c4)nc32)C1 [Example 107] | A (A represents a value below 5×10^−6 cm/sec) | > 50 | B (B represents a pC50 value between 6.7 (included) and 7.5 (IC50 between 200 nM and 32 nM)) | B (B represents pKi value between 9 and 10 (Ki between 1 nM and 0.1 nM)) | A (A represents a value of 3 or above) | E (E represents a pKi value of 7 or below (Ki of 100 nM or above)) | E (E represents a pKi value of 7 or below (Ki of 100 nM or above)) | E (E represents a pKi value of 7 or below (Ki of 100 nM or above))

Reference: patent US11697648B2, “Fused pyrimidine pyridinone compounds as JAK inhibitors” (THERAVANCE BIOPHARMA R&D IP, LLC, priority 2019, dated 2023)
